Values belong to the molecule of their own block, whether it stands above or below them. Where no end group is shown, it is not given here.
What was measured:
22Rv.1 cells = test: Clonogenic assay; assay type: cell-based; conditions: neomycin selection, colonies quantified; mean ± SEM of at least three independent experiments
From the text: Figure 5 An N-terminal unfolded fragment of the Bag-1 peptide is sufficient to reduce tumor cell growth. A. Schematic diagram of the Bag-1 peptide and its deletion mutants. The ubiquitin-like domain is represented in blue and the BAG domain in red. The numbers refer to the amino acid positions of the different domains. The amino acid residues are numbered following the numbering for Bag-1L. B. Prediction of the secondary structure of the Bag-1 peptide, showing an N-terminal β-hairpin from the ubiquitin-like domain (blue) and a C-terminal α-helix from the BAG domain (red). C. Normalized circular dichroism spectra of the Bag-1 peptides. 30 µM of the Bag-1 peptide were measured in 20 mM KHPO4 buffer, pH 6.8 (black line). Its α-helical content was estimated to be approximately 25% by deconvolution of the spectra (red line). 12 µM of the N-term peptide (green line) and 11 µM of C-term (blue line) were measured under the same conditions. D. ^1H^15N-HSQC NMR spectrum of ^15N-labeled Bag-1 peptide (202–269) in 20 mm KHPO4 buffer, pH 6.8, at 23°C. […] The Hδ and Hε side chain signals of asparagine and glutamine are connected by thin lines. E. The N-terminal region of the Bag-1 peptide is important for GRP78 binding. 400 µg of 22Rv.1 cell lysate were incubated with glutathione-agarose beads carrying 15 µg GST-N-term peptide (lane 2), GST-C-term peptide (lane 3), GST-ΔUbi peptide (lane 4), GST-Bag-1(202–269) peptide (lane 5) and GST (lane 6). The beads were washed and the bound proteins were separated by 10% SDS-PAGE and subjected to Western blotting using antibodies directed against GRP78 or GST. […] F. Clonogenic assay of the Bag-1 peptides expressed in 22Rv.1 cells. Cells transfected with the indicated constructs were selected in medium containing neomycin and the colonies formed were quantified. Shown are the mean value ±SEM of at least three independent experiments using three different plasmid preparations (*p<0.05). […] Six-week old athymic nude mice were injected subcutaneously on both flanks with 5×10^6 cells of each stable clone. Tumor size was measured once per week using a caliper and expressed as tumor volume in mm^3. Shown are the tumor volumes of clones transfected with the N-terminal peptide (G), the C-terminal peptide (H) and the ΔUbi peptide (I). Each point represents the mean volume and standard deviation of at least 5 to 10 tumors.
(§1) Figure 6 Selectivity of action of the Bag-1 peptide. A Amino acid sequence of the 19mer peptide and its deletion mutants. B GST pull-down assay performed incubating 400 µg of 22Rv.1 cell lysate and 25 µg of GST-fused deletion mutants of the 19mer peptide. After the pull-down experiment, Western blots were carried out with anti-GRP78/BiP and GST antibodies. C. Fluorescence polarization (FP) assays with a 10 nM FITC-labeled 7-mer Bag-1 peptide and dilutions of the GST-fused substrate binding domain of GRP78 in 60 µl of Tris-GSH buffer (50 mM Tris, 10 mM reduced glutathione and 0.1% BSA, pH 8.0). Triplicate samples were measured after 5 h of incubation at room temperature with an Infinite F-200 reader (Tecan) with excitation at 490 nm and emission at 535 nm. Binding constants were determined from three independent experiments using non-linear regression in Sigma Plot 10.0. D. Competition assays with a complex of 10 nM of FITC-labeled Bag-1 7-mer peptide and 0.75 mg/ml GST-fused GRP78 substrate binding domain was measured against a dilution series from 100 µM to 0.1 nM of wild-type Bag-1 7-mer peptide (filled line) or triple mutant peptide (dotted line) in 40 µl of Tris-GSH buffer. FITC-peptide and the FITC-peptide-protein complex were used as controls. Fluorescence polarization was determined as described above and IC50 values were determined in Sigma Plot. […]

[1] = system: unfolded protein response in 22Rv.1 cells; test: UPR modulation, Western blot / PCR in 22Rv.1 cells; assay type: cell-based
Experimental: Unless otherwise stated, stable transfection was carried out in 22Rv.1 or BPH-1 cells with 10 µg of plasmid DNA using FuGene 6™ (Roche Diagnostics Mannheim, Germany) Stably transfected 22Rv.1 cells were selected with 0.8 mg/ml while BPH-1 cell clones were selected with 1.2 mg/ml G418. LNCaP, PC3, DU145, PNT-2 and RWPE-1 cell clones were selected with 1 mg/ml G418. Specific downregulation of GRP78 expression was achieved by transfecting siRNA-duplexes (GRP78∶5′-[…]-3′) twice in 72 h using HiPerfect™ (Qiagen Hilden, Germany). siRNA against GFP (5′-[…]-3′) was used as a control. Western blot analysis was performed as previously described.
Figure 3 The Bag-1 peptide modulates the UPR and sensitizes 22Rv.1 cells to ER-stress. A. UPR modulation upon Bag-1 peptide overexpression. Pooled clones of 22Rv.1 cells transfected with pcDNA3.1-HA-Bag-1 68 amino acid peptide or an empty expression vector were treated with 300 nM thapsigargin (TG) for the indicated time points. Cells were lysed and subjected to Western blot analysis using the indicated antibodies or phospho-specific antibodies. B. The Bag-1 peptide sensitizes 22Rv.1 cells to ER-stress induced apoptosis. Pooled clones of 22Rv.1 transfected with the Bag-1 peptide or the empty expression vector were treated with thapsigargin (TG) or glucose-starved (GS) for 24 h. The cells were lysed and subjected to Western blot analysis using anti-PARP and caspase 4 specific antibodies. Anti-HA antibody was used to detect the HA-Bag-1 peptide. […] C. […] Pooled clones of 22Rv.1 expressing HA-tagged Bag-1 peptide or an empty expression vector were transfected with GRP78/BiP siRNA or control GFP siRNA. The cells were lysed and Western blot was carried out with anti-PARP, anti-GRP78 and anti-HA antibodies. β-actin antibody was used to determine the level of protein loaded on the gel.
(§2) A. Real time PCR analysis of ATF6 gene expression following thapsigargin (300 nM) treatment for the indicated time points in 22Rv.1 cell clones with empty vector control (open bars) and peptide-expressing clones (filled bars). The RNA was extracted using PeqGold RNA pure (PeqLab, Germany) kit according to manufacturer’s instructions. For gene expression analysis, the following primers were used: Rib36 forward 5′-[…]-3′; reverse 5′-CCGGATATGAGGCAGCAG-3′; ATF6 forward 5′-[…]-3′; reverse 5′-[…]-3′. Each bar represents the mean of three independent experiments ± SEM. *p<0.05. B. Western blot analysis of ATF6 and its cleaved product (cATF6) in LNCaP cells stably expressing the empty vector control or the Bag-1 peptide. Anti-ATF6 specific antibody and an anti-HA specific antibody were used for the Western blot. β-actin antibody was used to determine equal loading control. Mouse monoclonal anti-ATF6 antibody was purchased from Imgenex (Hamburg, Germany), mouse monoclonal anti-HA antibody (HA.11 clone 16B12) was purchased from Covance (Munich, Germany) and anti-β-actin antibody was purchased from Abcam (Cambridge, UK). (TIF) Click here for additional data file.
Supplementary file pone.0045690.s004.tif: Figure S4 The Bag-1 peptide induces GCN2 phosphorylation. 22Rv.1 cells stably expressing the empty vector control or the Bag-1 peptide were treated with thapsigargin (300 nM) for 16 h and subjected to Western blot analysis using anti-phospho-GCN2, GCN2 and HA-specific antibodies. The filters used in this experiment for the GCN2 signals are the same filters used in Figure 3A. The HA-Bag-1 peptide and the β-actin signals are therefore identical to that of Figure 3A. (TIF) Click here for additional data file.

[2] = system: LNCaP prostate cancer cells; test: ATF6 Western blot in LNCaP cells; assay type: cell-based; conditions: thapsigargin
Experimental: as §2

[3] = molecular target: T1, GST-fused GRP78 substrate binding domain (Homo sapiens, UniProt P11021); test: Fluorescence polarization competition assay; conditions: displacement of 10 nM FITC-labeled Bag-1 7-mer from 0.75 mg/ml GST-GRP78 SBD; competitor 100 µM to 0.1 nM, Tris-GSH buffer
T1 construct: GRP78-SBD (GRP78 409–651); made in house
Experimental: Fluorescence polarization assays were carried out using an Infinite F-200 reader (Tecan) with excitation at 490 nm and emission at 535 nm.
as §1, with “[…] The colonies were stained” for “FITC-peptide”, “quantified.” for “the FITC-peptide-protein complex were used as controls. Fluorescence polarization was determined as described above and IC50 values were determined in Sigma Plot.”

[4] = molecular target: T2, GST-fused GRP78-SBD (GRP78 409-651) (UniProt P11021 409-651); test: fluorescence polarisation; 10 nM FITC-labeled 7-mer peptide with dilutions of GST-fused GRP78 SBD in Tris-GSH buffer (50 mM Tris, 10 mM reduced glutathione, 0.1% BSA, pH 8.0), 5 h at room temperature; conditions: both partners purified
T2 construct: Used on beads in pull-downs and in solution (GST kept) in fluorescence polarisation; also called GST-GRP78(SBD); source: bacterially purified GST fusion (pGEX4T.1)

[5] = molecular target: T2, GST-fused GRP78-SBD (GRP78 409-651); test: fluorescence polarisation; competition: complex of 10 nM FITC-labeled 7-mer peptide and 0.75 mg/ml GST-fused GRP78 SBD against 100 µM to 0.1 nM unlabeled peptide in Tris-GSH buffer; conditions: both partners purified

T2 sequence (P11021 409-651): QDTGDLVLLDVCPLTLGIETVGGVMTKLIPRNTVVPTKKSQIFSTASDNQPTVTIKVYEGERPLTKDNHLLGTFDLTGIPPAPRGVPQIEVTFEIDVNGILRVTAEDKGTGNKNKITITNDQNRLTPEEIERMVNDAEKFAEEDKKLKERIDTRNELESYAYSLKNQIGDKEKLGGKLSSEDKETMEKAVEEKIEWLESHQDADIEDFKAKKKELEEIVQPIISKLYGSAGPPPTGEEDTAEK
T1 sequence (P11021 409-651): as above

Molecule: 19-mer mutant: 202–220 amino acid peptide with mutated core (VML exchanged with alanine residues) (TPLSALGIQDGCRAAAIGK; also: HA tag, end not given here)
22Rv.1 growth in clonogenic assay (22Rv.1 cells): significantly reduced the ability of the 19 amino acid sequence to inhibit 22Rv.1 cell growth

Molecule: C/C=C(/C)C(=O)O[C@H]1C(C)=C2[C@H]([C@@H]1OC(=O)CCCCCCC)[C@@](C)(OC(C)=O)C[C@H](OC(=O)CCC)[C@@]1(O)[C@H]2OC(=O)[C@@]1(C)O [thapsigargin, reference compound]
ATF6 expression ([1]; 22Rv.1 cells, thapsigargin 300 nM): enhanced the expression of this gene | UPR activation ([1]; 22Rv.1 vector control cells, 300 nM thapsigargin): all three arms of the UPR were activated | ATF6 expression (protein level) [2]: also seen in LNCaP prostate cancer cells at the protein level

IC50 [3]: > 100 µM
Molecule: RAAAIGK [RAAAIGK]

Kd [4]: 5.7 ± 0.8 µM
B1: FITC-labeled 7-mer Bag-1 peptide (214RVMLIGK220) (peptide)
peptide: RVMLIGK
modifications: also: FITC label, place not given here
notes: core peptide of Bag-1, residues 214-220 on Bag-1L numbering; also called FITC-peptide

IC50 [5]: 2.6 ± 0.5 µM
B2: wild-type Bag-1 7-mer peptide (214RVMLIGK220), unlabeled (peptide)
peptide: RVMLIGK
notes: core peptide of Bag-1, residues 214-220 on Bag-1L numbering; also called seven amino acid core peptide

IC50 [5]: > 100 µM
Molecule: RAAAIGK [triple mutant Bag-1 7-mer peptide (214RAAAIGK220)]

Reference: PMC3462190, “A Peptidic Unconjugated GRP78/BiP Ligand Modulates the Unfolded Protein Response and Induces Prostate Cancer Cell Death” (PLoS ONE, 2012)
